Measured values as given in PubChem BioAssay (NCI).
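Test compounds were applied to cells in 96-well plates for 48 hours at 5 doses. TGI: concentration producing complete growth inhibition.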

Experiments:
Test in all cases: DTP human tumour cell line panel, 48 h
[1] = tested on: HCT-15 colon
[2] = tested on: DLD-1 colon
[3] = tested on: HOP-62 NSCLC
[4] = tested on: M14 melanoma
[5] = tested on: HCT-116 colon
[6] = tested on: EKVX NSCLC
[7] = tested on: HOP-92 NSCLC
[8] = tested on: SNB-19 CNS
[9] = tested on: SK-OV-3 ovarian
[10] = tested on: LXFL 529 NSCLC
[11] = tested on: M19-MEL melanoma
[12] = tested on: OVCAR-3 ovarian
[13] = tested on: SK-MEL-5 melanoma
[14] = tested on: RXF-631 renal
[15] = tested on: OVCAR-4 ovarian
[16] = tested on: KM12 colon
[17] = tested on: TK-10 renal
[18] = tested on: SW-620 colon
[19] = tested on: NCI-H460 lung
[20] = tested on: 786-0 renal
[21] = tested on: HT29 colon
[22] = tested on: SF-268 CNS
[23] = tested on: HL-60(TB) leukemia
[24] = tested on: U251 CNS
[25] = tested on: UACC-257 melanoma
[26] = tested on: RXF 393 renal
[27] = tested on: A498 renal
[28] = tested on: CAKI-1 renal
[29] = tested on: HOP-18 NSCLC
[30] = tested on: SF-539 CNS
[31] = tested on: SK-MEL-28 melanoma
[32] = tested on: ACHN renal
[33] = tested on: IGROV1 ovarian
[34] = tested on: NCI-H522 lung
[35] = tested on: DMS 114 small cell lung
[36] = tested on: SF-295 CNS
[37] = tested on: COLO 205 colon
[38] = tested on: K-562 leukemia
[39] = tested on: A549 NSCLC
[40] = tested on: DMS 273 small cell lung
[41] = tested on: SN12C renal
[42] = tested on: KM20L2 colon
[43] = tested on: HCC-2998 colon
[44] = tested on: SK-MEL-2 melanoma
[45] = tested on: LOX IMVI melanoma
[46] = tested on: UACC-62 melanoma
[47] = tested on: SNB-75 CNS
[48] = tested on: OVCAR-8 ovarian
[49] = tested on: CCRF-CEM leukemia
[50] = tested on: MALME-3M melanoma
[51] = tested on: OVCAR-5 ovarian
[52] = tested on: UO-31 renal
[53] = tested on: SNB-78 CNS
[54] = tested on: NCI-H23 lung
[55] = tested on: MOLT-4 leukemia
[56] = tested on: RPMI-8226 leukemia
[57] = tested on: NCI-H226 lung
[58] = tested on: SR leukemia
[59] = tested on: XF 498 CNS

Q: Which TGI [1] does the source give for `CC1S(=O)(=O)OCCOS1(=O)=O` here?
A: Its TGI is over 100 µM.

Q: And the TGI [2]?
A: The TGI was over 100 µM.

Q: What about the TGI [3] of the same compound?
A: Its TGI is over 100 µM.

Q: What about the TGI [4] of the same compound?
A: The TGI was over 100 µM.

Q: And the TGI [5]?
A: Its TGI is over 100 µM.

Q: And the TGI [6]?
A: The TGI was over 100 µM.

Q: What about the TGI [7] of the same compound?
A: The TGI was over 100 µM.

Q: And the TGI [8]?
A: The TGI was over 100 µM.

Q: What about the TGI [9] of the same compound?
A: The TGI was over 100 µM.

Q: What about the TGI [10] of the same compound?
A: The TGI was over 100 µM.

Q: What about the TGI [11] of the same compound?
A: The TGI was over 100 µM.

Q: And the TGI [12]?
A: Its TGI is over 100 µM.

Q: What about the TGI [13] of the same compound?
A: The TGI was over 100 µM.

Q: What about the TGI [14] of the same compound?
A: Its TGI is over 100 µM.

Q: And the TGI [15]?
A: Its TGI is over 100 µM.

Q: And the TGI [16]?
A: Its TGI is over 100 µM.

Q: And the TGI [17]?
A: Its TGI is over 100 µM.

Q: What about the TGI [18] of the same compound?
A: Its TGI is over 100 µM.

Q: What about the TGI [19] of the same compound?
A: The TGI was over 100 µM.

Q: What about the TGI [20] of the same compound?
A: Its TGI is over 100 µM.

Q: And the TGI [21]?
A: The TGI was over 100 µM.

Q: And the TGI [22]?
A: Its TGI is over 100 µM.

Q: What about the TGI [23] of the same compound?
A: Its TGI is 87.1 µM.

Q: And the TGI [24]?
A: Its TGI is over 100 µM.

Q: What about the TGI [25] of the same compound?
A: The TGI was over 100 µM.

Q: What about the TGI [26] of the same compound?
A: The TGI was over 100 µM.

Q: What about the TGI [27] of the same compound?
A: The TGI was over 100 µM.

Q: And the TGI [28]?
A: Its TGI is over 100 µM.

Q: What about the TGI [29] of the same compound?
A: Its TGI is over 100 µM.

Q: What about the TGI [30] of the same compound?
A: The TGI was over 100 µM.

Q: And the TGI [31]?
A: The TGI was over 100 µM.

Q: And the TGI [32]?
A: Its TGI is over 100 µM.

Q: What about the TGI [33] of the same compound?
A: The TGI was over 100 µM.

Q: And the TGI [34]?
A: Its TGI is over 100 µM.

Q: What about the TGI [35] of the same compound?
A: Its TGI is over 100 µM.

Q: What about the TGI [36] of the same compound?
A: Its TGI is over 100 µM.

Q: And the TGI [37]?
A: Its TGI is over 100 µM.

Q: And the TGI [38]?
A: The TGI was over 100 µM.

Q: What about the TGI [39] of the same compound?
A: Its TGI is over 100 µM.

Q: And the TGI [40]?
A: The TGI was over 100 µM.

Q: And the TGI [41]?
A: Its TGI is over 100 µM.

Q: What about the TGI [42] of the same compound?
A: The TGI was over 100 µM.

Q: And the TGI [43]?
A: The TGI was over 100 µM.

Q: What about the TGI [44] of the same compound?
A: The TGI was over 100 µM.

Q: What about the TGI [45] of the same compound?
A: The TGI was over 100 µM.

Q: What about the TGI [46] of the same compound?
A: Its TGI is over 83.5 µM.

Q: What about the TGI [47] of the same compound?
A: The TGI was over 100 µM.

Q: And the TGI [48]?
A: Its TGI is over 100 µM.

Q: And the TGI [49]?
A: Its TGI is over 100 µM.

Q: And the TGI [50]?
A: Its TGI is over 100 µM.

Q: And the TGI [51]?
A: Its TGI is over 100 µM.

Q: What about the TGI [52] of the same compound?
A: Its TGI is over 100 µM.

Q: And the TGI [53]?
A: The TGI was over 100 µM.

Q: What about the TGI [54] of the same compound?
A: Its TGI is over 100 µM.

Q: What about the TGI [55] of the same compound?
A: Its TGI is over 100 µM.

Q: What about the TGI [56] of the same compound?
A: The TGI was over 100 µM.

Q: And the TGI [57]?
A: Its TGI is over 100 µM.

Q: Which results are given for `CCCCCCCCCCCCCCCCCCCCCC(=O)Nc1ccn(C2OC(CO)C(O)C2O)c(=O)n1` (stereo not given)?
A: TGI [1]: > 100 µM; TGI [2]: > 100 µM; TGI [3]: > 57.6 µM; TGI [4]: 32.6 µM; TGI [5]: > 100 µM; TGI [6]: > 100 µM; TGI [7]: > 100 µM; TGI [8]: > 100 µM; TGI [9]: > 100 µM; TGI [10]: > 100 µM; TGI [11]: > 100 µM; TGI [12]: > 100 µM; TGI [13]: > 100 µM; TGI [15]: > 100 µM; TGI [16]: > 100 µM; TGI [17]: > 100 µM; TGI [18]: > 100 µM; TGI [19]: > 100 µM; TGI [20]: > 100 µM; TGI [21]: > 100 µM; TGI [58]: 26.8 µM; TGI [22]: > 100 µM; TGI [23]: > 100 µM; TGI [24]: > 100 µM; TGI [25]: > 100 µM; TGI [26]: > 100 µM; TGI [27]: > 100 µM; TGI [28]: > 100 µM; TGI [29]: > 100 µM; TGI [30]: > 100 µM; TGI [31]: > 100 µM; TGI [32]: > 82.6 µM; TGI [33]: > 100 µM; TGI [34]: > 100 µM; TGI [35]: > 43.2 µM; TGI [36]: > 100 µM; TGI [37]: > 100 µM; TGI [38]: > 100 µM; TGI [39]: > 100 µM; TGI [40]: > 100 µM; TGI [41]: > 100 µM; TGI [42]: > 100 µM; TGI [43]: > 100 µM; TGI [44]: > 100 µM; TGI [45]: > 100 µM; TGI [46]: > 100 µM; TGI [47]: > 100 µM; TGI [48]: > 100 µM; TGI [59]: > 100 µM; TGI [49]: > 40.7 µM; TGI [50]: > 100 µM; TGI [51]: > 100 µM; TGI [52]: > 100 µM; TGI [53]: > 100 µM; TGI [54]: > 100 µM; TGI [55]: > 37.1 µM; TGI [56]: > 100 µM; TGI [57]: > 100 µM
